Test results: ChEMBL document CHEMBL1201861, “Genomics of Drug Sensitity in Cancer screening data, Wellcome Trust Sanger Institute”

What was measured:
Experiment in all cases: cells
Conditions in all cases: Homo sapiens
[1] = tested on: LOX IMVI; type: functional, cell-based
[2] = tested on: KLE; type: functional, cell-based;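 note: growth inhibition of human KLE cells, read out with a cell viability assay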
[3] = tested on: TE-9; type: functional, cell-based;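 note: cell growth inhibition, measured with a cell viability readout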
[4] = tested on: NCI-H23; type: functional, cell-based;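 note: cell viability assay measuring growth inhibition of NCI-H23 cells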
[5] = tested on: NCI-H226; type: functional, cell-based;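 note: cell viability read-out used to gauge growth inhibition of the cells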
[6] = tested on: CAS-1; type: functional, cell-based;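 note: growth inhibition of CAS-1 cells, measured with a cell viability assay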
[7] = tested on: NEC8; type: functional, cell-based;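 note: growth inhibition of human NEC8 cells, read out by a cell viability assay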
[8] = tested on: KALS-1; type: functional, cell-based;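 note: growth inhibition of KALS-1 cells, determined with a cell viability assay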
[9] = tested on: MZ1-PC; type: functional, cell-based;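 note: cell viability assay measuring growth inhibition of human MZ1-PC cells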
[10] = tested on: TE-11; type: functional, cell-based;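 note: growth inhibition of human TE-11 cells, read out by a cell viability assay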
[11] = tested on: SNU1; type: functional, cell-based;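 note: growth inhibition of human NCI-SNU-1 cells, measured with a cell viability assay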
[12] = tested on: 8-MG-BA; type: functional, cell-based;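 note: growth inhibition of 8-MG-BA cells, read out with a cell viability assay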
[13] = tested on: TK-10; type: functional, cell-based;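 note: growth inhibition of TK-10 cells, read out in a cell viability assay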
[14] = tested on: NCI-H1648; type: functional, cell-based;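 note: cell viability assay measuring inhibition of NCI-H1648 cell growth, from the Sanger screening data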
[15] = tested on: MN-60; type: functional, cell-based;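 note: growth inhibition of the MN-60 cell line, determined with a cell viability assay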
[16] = tested on: NCI-H510A; type: functional, cell-based;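 note: growth inhibition of NCI-H510A cells, read out with a cell viability assay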
[17] = tested on: CTV-1; type: functional, cell-based;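 note: growth inhibition of the cell line, read out with a cell viability assay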
[18] = tested on: KU812 cell line; type: functional, cell-based;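 note: growth inhibition of KU812 cells, read out with a cell viability assay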
[19] = tested on: GI-ME-N; type: functional, cell-based;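 note: growth inhibition of human GI-ME-N cells, read out with a cell viability assay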
[20] = tested on: U-266; type: functional, cell-based
[21] = tested on: CGTH-W-1; type: functional, cell-based;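 note: growth inhibition of human CGTH-W-1 cells measured by cell viability assay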
[22] = tested on: ALL-PO; type: functional, cell-based;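 note: growth inhibition of ALL-PO cells, read out by a cell viability assay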
[23] = tested on: UACC-257; type: functional, cell-based
[24] = tested on: NOS-1; type: functional, cell-based;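 note: growth inhibition of the human NOS-1 cell line, read out with a cell viability assay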
[25] = tested on: HEL; type: functional, cell-based;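 note: growth inhibition of HEL cells, read out with a cell viability assay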
[26] = tested on: LC-2-ad; type: functional, cell-based;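 note: growth inhibition of human LC-2-ad cells, read out with a cell viability assay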
[27] = tested on: NB5; type: functional, cell-based;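 note: growth inhibition of NB5 cells, read out as cell viability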
[28] = tested on: SW684; type: functional, cell-based;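 note: growth inhibition of human SW684 cells, measured by a cell viability assay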
[29] = tested on: LU-139; type: functional, cell-based
[30] = tested on: COLO-824; type: functional, cell-based
[31] = tested on: HH; type: functional, cell-based
[32] = tested on: OCUB-M; type: functional, cell-based;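 note: growth inhibition of the cancer cell line, read out through a cell viability assay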
[33] = tested on: KP-N-YS; type: functional, cell-based;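 note: cell viability assay measuring inhibition of cell line growth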
[34] = tested on: NH-12; type: functional, cell-based;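 note: growth inhibition of NH-12 cells, read out with a cell viability assay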
[35] = tested on: KNS-42; type: functional, cell-based;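 note: growth inhibition of KNS-42 cells, read out with a cell viability assay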
[36] = tested on: DB; type: functional, cell-based
[37] = tested on: MEG-01; type: functional, cell-based;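 note: growth inhibition of MEG-01 cells, read out by a cell viability assay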
[38] = tested on: NCI-H1770; type: functional, cell-based;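 note: growth inhibition of NCI-H1770 cells determined with a viability readout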
[39] = tested on: MPP-89; type: functional, cell-based;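 note: growth inhibition of human MPP-89 cells, read out with a cell viability assay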
[40] = tested on: SW982; type: functional, cell-based;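 note: growth inhibition of SW982 cells, read out with a cell viability assay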
[41] = tested on: DMS-79; type: functional, cell-based;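 note: growth inhibition measured with a cell viability assay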
[42] = tested on: SNB-75; type: functional, cell-based;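 note: cell viability assay measuring growth inhibition of human SNB-75 cells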
[43] = tested on: COLO-684; type: functional, cell-based
[44] = tested on: Mo; type: functional, cell-based
[45] = tested on: MS-1; type: functional, cell-based;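 note: growth inhibition of MS-1 cells, read out by cell viability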
[46] = tested on: D283 Med; type: functional, cell-based
[47] = tested on: AM-38; type: functional, cell-based;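 note: growth inhibition of AM-38 cells of human origin, read out by a cell viability assay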
[48] = tested on: Lu-65; type: functional, cell-based;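 note: growth inhibition of Lu-65 cancer cells, read out by a cell viability assay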
[49] = tested on: MFM-223; type: functional, cell-based
[50] = tested on: GAK; type: functional, cell-based
[51] = tested on: KURAMOCHI; type: functional, cell-based;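 note: growth inhibition of KURAMOCHI cells, read out with a cell viability assay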
[52] = tested on: no-11; type: functional, cell-based;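 note: growth inhibition of human NO-11 cells, read out with a cell viability assay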
[53] = tested on: MSTO-211H; type: functional, cell-based
[54] = tested on: U-87 MG; type: functional, cell-based, U-87MG ATCC;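 note: growth inhibition of the cells measured with a viability assay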
[55] = tested on: SCC-15; type: functional, cell-based;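 note: growth inhibition of SCC-15 cells, read out with a cell viability assay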
[56] = tested on: NB10; type: functional, cell-based;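 note: growth inhibition of NB10 cells, read out by a cell viability assay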
[57] = tested on: CP66-MEL; type: functional, cell-based;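 note: growth inhibition of CP66-MEL cells determined in a cell viability assay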
[58] = tested on: TE-12; type: functional, cell-based;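 note: growth inhibition of TE-12 cells, read out by a cell viability assay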
[59] = tested on: DEL; type: functional, cell-based;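 note: growth inhibition of the human DEL cell line, read out with a cell viability assay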
[60] = tested on: NTERA-2-cl-D1; type: functional, cell-based;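 note: inhibition of cell growth, measured with a cell viability assay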
[61] = tested on: RH-1; type: functional, cell-based;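 note: growth inhibition of human RH-1 cells, read out with a cell viability assay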
[62] = tested on: TE-1; type: functional, cell-based;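 note: growth inhibition of the human TE-1 cell line, read out with a cell viability assay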
[63] = tested on: KINGS-1; type: functional, cell-based;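 note: cell viability assay measuring suppression of KINGS-1 cell growth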
[64] = tested on: CW-2; type: functional, cell-based;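 note: growth inhibition of CW-2 cells, read out by a cell viability assay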
[65] = tested on: SW 954; type: functional, cell-based
[66] = tested on: NCI-H1092; type: functional, cell-based

COc1cc(Nc2c(C#N)cnc3cc(OCCCN4CCN(C)CC4)c(OC)cc23)c(Cl)cc1Cl [BOSUTINIB]
IC50 [1]: 1750 nM | IC50 [2]: > 2000 nM | IC50 [3]: > 2000 nM | IC50 [4]: > 2000 nM | IC50 [5]: > 2000 nM | IC50 [6]: > 2000 nM | IC50 [7]: > 2000 nM | IC50 [8]: > 2000 nM | IC50 [9]: > 2000 nM | IC50 [10]: > 2000 nM | IC50 [11]: > 2000 nM | IC50 [12]: > 2000 nM | IC50 [13]: > 2000 nM | IC50 [14]: > 2000 nM | IC50 [15]: > 2000 nM | IC50 [16]: > 2000 nM | IC50 [17]: 164 nM | IC50 [18]: 341 nM | IC50 [19]: > 2000 nM | IC50 [20]: > 2000 nM | IC50 [21]: > 2000 nM | IC50 [22]: > 2000 nM | IC50 [23]: > 2000 nM | IC50 [24]: > 2000 nM | IC50 [25]: > 2000 nM | IC50 [26]: > 2000 nM | IC50 [27]: > 2000 nM | IC50 [28]: > 2000 nM | IC50 [29]: > 2000 nM | IC50 [30]: > 2000 nM | IC50 [31]: > 2000 nM | IC50 [32]: > 2000 nM | IC50 [33]: > 2000 nM | IC50 [34]: > 2000 nM | IC50 [35]: > 2000 nM | IC50 [36]: > 2000 nM | IC50 [37]: 512 nM | IC50 [38]: > 2000 nM | IC50 [39]: > 2000 nM | IC50 [40]: > 2000 nM | IC50 [41]: > 2000 nM | IC50 [42]: > 2000 nM | IC50 [43]: > 2000 nM | IC50 [44]: > 2000 nM | IC50 [45]: > 2000 nM | IC50 [46]: > 2000 nM | IC50 [47]: > 2000 nM | IC50 [48]: > 2000 nM | IC50 [49]: > 2000 nM | IC50 [50]: […] | IC50 [51]: > 2000 nM | IC50 [52]: > 2000 nM | IC50 [53]: > 2000 nM | IC50 [54]: > 2000 nM | IC50 [55]: 1620 nM | IC50 [56]: > 2000 nM | IC50 [57]: > 2000 nM | IC50 [58]: > 2000 nM | IC50 [59]: 1440 nM | IC50 [60]: > 2000 nM | IC50 [61]: > 2000 nM | IC50 [62]: > 2000 nM | IC50 [63]: > 2000 nM | IC50 [64]: > 2000 nM | IC50 [65]: 1550 nM | IC50 [66]: > 2000 nM

Cc1nc(Nc2ncc(C(=O)Nc3c(C)cccc3Cl)s2)cc(N2CCN(CCO)CC2)n1 [DASATINIB]
IC50 [1]: 315 nM | IC50 [2]: 113 nM | IC50 [3]: 875 nM | IC50 [4]: > 1280 nM | IC50 [5]: > 1280 nM | IC50 [6]: > 1280 nM | IC50 [7]: > 1280 nM | IC50 [8]: 94.9 nM | IC50 [9]: 31.2 nM | IC50 [10]: 78.6 nM | IC50 [11]: > 1280 nM | IC50 [12]: 155 nM | IC50 [13]: 11.7 nM | IC50 [14]: 20.1 nM | IC50 [15]: > 1280 nM | IC50 [16]: > 1280 nM | IC50 [17]: < 5 nM | IC50 [18]: 119 nM | IC50 [19]: 61.2 nM | IC50 [20]: > 1280 nM | IC50 [21]: 35.5 nM | IC50 [22]: > 1280 nM | IC50 [23]: > 1280 nM | IC50 [24]: 6.13 nM | IC50 [25]: > 1280 nM | IC50 [26]: 25.9 nM | IC50 [27]: > 1280 nM | IC50 [28]: 350 nM | IC50 [29]: > 1280 nM | IC50 [30]: > 1280 nM | IC50 [31]: > 1280 nM | IC50 [32]: 1040 nM | IC50 [33]: > 1280 nM | IC50 [34]: > 1280 nM | IC50 [35]: 1240 nM | IC50 [36]: > 1280 nM | IC50 [37]: < 5 nM | IC50 [38]: > 1280 nM | IC50 [39]: 40.5 nM | IC50 [40]: 11.1 nM | IC50 [41]: > 1280 nM | IC50 [42]: 44.4 nM | IC50 [43]: > 1280 nM | IC50 [44]: > 1280 nM | IC50 [45]: > 1280 nM | IC50 [46]: > 1280 nM | IC50 [47]: > 1280 nM | IC50 [48]: > 1280 nM | IC50 [49]: > 1280 nM | IC50 [50]: […] | IC50 [51]: 34.9 nM | IC50 [52]: 502 nM | IC50 [53]: > 1280 nM | IC50 [54]: > 1280 nM | IC50 [55]: > 1280 nM | IC50 [56]: > 1280 nM | IC50 [57]: 195 nM | IC50 [58]: 18.6 nM | IC50 [59]: > 1280 nM | IC50 [60]: 123 nM | IC50 [61]: > 1280 nM | IC50 [62]: 105 nM | IC50 [63]: 167 nM | IC50 [64]: > 1280 nM | IC50 [65]: 29.3 nM | IC50 [66]: > 1280 nM
